Experiments:
Assay in all cases: relative viability (nuclei count vs DMSO), 5 days (fraction); higher = more cells survive
[1] = compound: O=C(O)c1ccc2c(c1)nc(Nc1cccc(Cl)c1)c1ccncc12 [Silmitasertib] + C[C@]1(O)C[C@@H](c2nc(-c3ccc4ccc(-c5ccccc5)nc4c3)c3c(N)nccn32)C1 [Linsitinib] (partner 1 µM)
Procedure, shortened: (§1)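 Each reported value is a median over duplicate plates. It expresses relative viability: treated-well nuclei count divided by vehicle-well nuclei count. Lung cancer cell lines in 1536-well plates were dosed by pin tool a day after seeding, alone with one drug or with a fixed anchor-drug dose plus five library-drug doses (not always all listed) in √10 steps, and nuclei were counted after 5 days.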

[2] = compound: O=C(O)c1ccc2c(c1)nc(Nc1cccc(Cl)c1)c1ccncc12 [Silmitasertib] + N=C(N)NC(=N)NCCc1ccccc1 [Phenformin] (partner 250 µM)
Procedure, shortened: as §1

[3] = compound: O=C(O)c1ccc2c(c1)nc(Nc1cccc(Cl)c1)c1ccncc12 [Silmitasertib] + CCNC(=O)c1noc(-c2cc(C(C)C)c(O)cc2O)c1-c1ccc(CN2CCOCC2)cc1 [Luminespib] (partner 0.01 µM)
Procedure, shortened: as §1

[4] = compound: O=C(O)c1ccc2c(c1)nc(Nc1cccc(Cl)c1)c1ccncc12 [Silmitasertib] + C[C@@H](Oc1cc(-c2cnn(C3CCNCC3)c2)cnc1N)c1c(Cl)ccc(F)c1Cl [Crizotinib] (partner 1 µM)
Procedure, shortened: as §1

[5] = compound: O=C(O)c1ccc2c(c1)nc(Nc1cccc(Cl)c1)c1ccncc12 [Silmitasertib] + CS(=O)(=O)N1CCN(Cc2cc3nc(-c4cccc5[nH]ncc45)nc(N4CCOCC4)c3s2)CC1 [Pictilisib] (partner 1 µM)
Procedure, shortened: as §1

Row | Cell Line | relative viability ([1]; first compound 0.04 µM) | relative viability ([1]; first compound 1.265 µM) | relative viability ([1]; first compound 4 µM) | relative viability ([2]; first compound 0.04 µM) | relative viability ([2]; first compound 1.265 µM) | relative viability ([2]; first compound 4 µM) | relative viability ([3]; first compound 0.04 µM) | relative viability ([3]; first compound 1.265 µM) | relative viability ([3]; first compound 4 µM) | relative viability ([4]; first compound 0.04 µM) | relative viability ([4]; first compound 1.265 µM) | relative viability ([4]; first compound 4 µM) | relative viability ([5]; first compound 0.04 µM) | relative viability ([5]; first compound 1.265 µM) | relative viability ([5]; first compound 4 µM) | relative viability ([1]; first compound 0.4 µM) | relative viability ([2]; first compound 0.4 µM) | relative viability ([3]; first compound 0.4 µM) | relative viability ([4]; first compound 0.4 µM) | relative viability ([5]; first compound 0.4 µM)
1 | HOP-62 | 0.973 | 0.998 | 0.703 | 0.624 | 0.662 | 0.608 | 0.954 | 1.04 | 0.969 | 0.914 | 0.943 | 0.49 | 0.809 | 0.654 | 0.279 | – | – | – | – | –
2 | UMC-11 | 1.04 | 1.1 | 0.678 | 0.336 | 0.341 | 0.286 | 1.2 | 0.861 | 0.613 | 0.604 | 0.56 | 0.324 | 0.992 | 0.652 | 0.436 | 1.08 | 0.319 | 1.1 | 0.683 | 0.903
3 | LCLC-103H | 1.09 | 1.04 | 0.796 | 0.314 | 0.32 | 0.23 | 0.909 | 0.751 | 0.548 | 1.03 | 1 | 0.713 | 0.578 | 0.565 | 0.446 | 1.19 | 0.307 | 0.707 | 1.06 | 0.702
4 | NCI-H1734 | 0.884 | 0.801 | 0.929 | 0.499 | 0.42 | 0.357 | 0.185 | 0.186 | 0.202 | 0.628 | 0.606 | 0.655 | 0.514 | 0.424 | 0.313 | – | 0.358 | 0.209 | – | –
5 | EKVX | 1.15 | 0.711 | 0.677 | 0.22 | 0.185 | 0.203 | 0.986 | 0.718 | 0.884 | 1.15 | 0.653 | 0.895 | 0.491 | 0.373 | 0.383 | 0.869 | 0.167 | 0.605 | 0.819 | 0.356
6 | HARA | 1.1 | 0.77 | 0.729 | 0.439 | 0.448 | 0.162 | 0.738 | 0.396 | 0.646 | 1.1 | 0.621 | 0.88 | 0.603 | 0.334 | 0.257 | 0.753 | 0.253 | 0.724 | 0.757 | 0.41
7 | EMC-BAC-2 | 0.891 | 0.709 | 0.686 | 0.578 | 0.381 | 0.301 | 1.22 | 0.876 | 0.39 | 0.847 | 0.653 | 0.721 | 0.568 | 0.371 | 0.325 | 0.769 | 0.493 | 1.13 | 0.701 | 0.472
8 | PC-14 | 0.966 | 1.01 | 0.993 | 0.641 | 0.547 | 0.125 | 0.188 | 0.14 | 0.179 | 0.932 | 0.888 | 0.847 | 0.629 | 0.566 | 0.646 | 0.999 | – | – | 0.897 | 0.661
9 | NCI-H520 | 1.05 | 1.04 | 0.785 | 0.677 | 0.605 | 0.429 | 0.242 | 0.242 | 0.289 | 0.821 | 0.792 | 0.612 | 0.263 | 0.258 | 0.224 | 1.17 | 0.492 | 0.232 | 0.728 | 0.298
10 | NCI-H1755 | 1.02 | 1.06 | 1.13 | 0.643 | 0.637 | 0.586 | 0.378 | 0.364 | 0.525 | 0.89 | 0.929 | 0.924 | 0.431 | 0.441 | 0.375 | 1.04 | 0.601 | 0.627 | 0.837 | 0.441
11 | NCI-H2087 | 0.991 | 0.608 | 0.408 | 0.515 | 0.431 | 0.223 | 0.148 | 0.179 | 0.142 | 0.88 | 0.853 | 0.428 | 0.997 | 0.577 | 0.347 | 0.75 | – | – | 0.793 | 0.513
12 | NCI-H2023 | 0.741 | 0.532 | 0.472 | 0.455 | 0.374 | 0.34 | 0.746 | 0.683 | 0.684 | 0.663 | 0.513 | 0.542 | 0.275 | 0.194 | 0.179 | 0.62 | 0.38 | 0.535 | 0.585 | 0.275
13 | CAL-12T | 0.93 | 0.652 | 0.475 | 0.67 | 0.352 | 0.296 | 0.363 | 0.278 | 0.125 | 0.685 | 0.542 | 0.318 | 0.532 | 0.34 | 0.232 | 0.826 | 0.488 | 0.531 | 0.423 | 0.394
14 | NCI-H2085 | 0.95 | 0.828 | 0.806 | 0.761 | 0.675 | 0.597 | 0.409 | 0.422 | 0.386 | 0.871 | 0.806 | 0.77 | 0.474 | 0.453 | 0.457 | 0.8 | – | – | 0.777 | 0.547
15 | NCI-H650 | 0.96 | 0.757 | 0.407 | 0.542 | 0.377 | 0.235 | 0.886 | 0.436 | 0.457 | 0.79 | 0.463 | 0.378 | 1.08 | 0.614 | 0.75 | 0.563 | 0.339 | 0.599 | 0.502 | 0.817
16 | LCLC-97TM1 | 0.178 | 0.172 | 0.14 | 0.477 | 0.328 | 0.295 | 0.892 | 0.691 | 0.442 | 0.593 | 0.339 | 0.141 | 0.19 | 0.15 | 0.112 | – | – | – | – | –
17 | NCI-H2126 | 0.722 | 0.626 | 0.585 | 0.494 | 0.494 | 0.462 | 0.915 | 0.777 | 0.853 | 1.02 | 0.99 | 1.12 | 0.512 | 0.45 | 0.454 | 0.737 | 0.515 | 0.901 | 0.996 | 0.508

— the supplement of paper PMC10307832
